target: T1, human PR-B binding to flPRE (Homo sapiens, UniProt P06401); test: FAMA: inhibition of PR binding to flcPRE; settings: binding to HRE, 5 concentrations 0.5-10 μM, sequential method
T1 construct: FLAG; made in house
T1 sequence (P06401 1-933): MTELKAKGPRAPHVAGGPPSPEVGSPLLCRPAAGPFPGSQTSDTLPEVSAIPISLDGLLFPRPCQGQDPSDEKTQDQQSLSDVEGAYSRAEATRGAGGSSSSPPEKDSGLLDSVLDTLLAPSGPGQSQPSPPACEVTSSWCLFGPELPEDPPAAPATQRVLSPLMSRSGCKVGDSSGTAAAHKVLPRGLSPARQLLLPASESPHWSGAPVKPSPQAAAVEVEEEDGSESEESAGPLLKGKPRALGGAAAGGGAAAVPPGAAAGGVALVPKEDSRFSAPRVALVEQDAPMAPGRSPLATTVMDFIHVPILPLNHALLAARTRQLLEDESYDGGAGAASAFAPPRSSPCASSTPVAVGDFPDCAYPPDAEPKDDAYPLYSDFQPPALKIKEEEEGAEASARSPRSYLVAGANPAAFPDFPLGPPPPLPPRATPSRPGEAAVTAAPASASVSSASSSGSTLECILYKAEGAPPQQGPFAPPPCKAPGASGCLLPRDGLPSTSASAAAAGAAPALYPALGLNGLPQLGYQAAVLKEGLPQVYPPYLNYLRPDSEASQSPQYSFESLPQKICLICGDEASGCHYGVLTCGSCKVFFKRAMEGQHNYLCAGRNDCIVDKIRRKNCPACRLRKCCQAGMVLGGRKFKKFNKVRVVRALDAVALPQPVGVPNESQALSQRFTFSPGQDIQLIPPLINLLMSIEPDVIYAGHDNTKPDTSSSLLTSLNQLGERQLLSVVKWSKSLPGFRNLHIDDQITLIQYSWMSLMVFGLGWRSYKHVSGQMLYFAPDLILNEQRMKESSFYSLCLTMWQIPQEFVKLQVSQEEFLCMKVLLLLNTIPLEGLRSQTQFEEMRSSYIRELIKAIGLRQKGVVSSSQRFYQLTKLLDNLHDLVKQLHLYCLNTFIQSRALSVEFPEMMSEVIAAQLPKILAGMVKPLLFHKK
Procedure: (§1) Dose response curves for selected compounds were carried out as described for the HTS screen except that each well contained the indicated concentration of test compound. PR assays were carried out in the same buffer used for ERα assays and contained 1 nM flcPRE and 11 nM PR-B and 100 nM progesterone. The buffer used for AR was similar but also contained 5 μM ZnCl, 5 mM NaF, 0.6 μM CHAPS and 100 nM dihydrotestosterone. AR assays contained 1 nM flcARE and 50 nM full-length wild-type AR.
(§2) Specificity was evaluated in dose-response studies by quantitative FAMA using purified full-length human PR binding to a fluorescein-labeled progesterone/glucocorticoid response element (flPRE) and full-length human androgen receptor (AR) binding to a fluorescein-labeled androgen response element (flARE).

SMILES | IC50
O=C(OC1C2COC(O2)C(OC(=O)c2ccccc2)C1OC(=O)c1ccccc1)c1ccccc1 (stereo not drawn) [Compound 1387] | 6.5 µM
CN(C)c1ncnc2c1cnn2-c1ccc(Cl)cc1 [Compound 1445] | 1.2 µM
CC1CCCCN1.CC1CCCCN1.[Cl][Cu][Cl] (stereo not drawn) [Compound 1826] | 6 µM
NNC(=O)OCc1ccccc1 [Compound 2287] | 2.7 µM
CCNc1ccc(-c2ccc(NCC)cc2)cc1 [Compound 2674] | 6.2 µM
CNc1ccccc1O [Compound 3879] | 6.5 µM
Brc1cccs1 [Compound 4456] | > 10 µM
CCCN(C(C)=O)c1ccccc1 [Compound 4700] | 2.7 µM
O=C(O)/C=C/c1ccccc1Cl [Compound 4792] | > 10 µM
CCCCCCCCCCCCCCCC[N+](C)(C)CCN(Cc1ccc(OC)cc1)c1ncccn1 [Compound 5648] | 7.3 µM
O=[N+]([O-])/C=C/c1ccco1 [Compound 5650] | 7.5 µM

The next lines start with the values.

IC50 | SMILES
1.5 µM | CCCCC(C)O (stereo not drawn) [Compound 3706]
2.9 µM | CCCCCCCC(=O)OC [Compound 3710]
7 µM | CCCCCCCCCC(=O)OC [Compound 3713]
4 µM | CCOC(=O)C(CC)(C(=O)OCC)C(C)C [Compound 4695]
8.8 µM | CC(C)CCOC(=S)S [Compound 4864]

target: T2, human androgen receptor (AR) binding to flARE (Homo sapiens, UniProt P10275); test: FAMA: inhibition of AR binding to flcARE; settings: binding to HRE, 5 concentrations 0.5-10 μM, sequential method
T2 construct: AR assays contained 1 nM flcARE and 50 nM full-length wild-type AR; FLAG; made in house
T2 sequence (P10275 1-920): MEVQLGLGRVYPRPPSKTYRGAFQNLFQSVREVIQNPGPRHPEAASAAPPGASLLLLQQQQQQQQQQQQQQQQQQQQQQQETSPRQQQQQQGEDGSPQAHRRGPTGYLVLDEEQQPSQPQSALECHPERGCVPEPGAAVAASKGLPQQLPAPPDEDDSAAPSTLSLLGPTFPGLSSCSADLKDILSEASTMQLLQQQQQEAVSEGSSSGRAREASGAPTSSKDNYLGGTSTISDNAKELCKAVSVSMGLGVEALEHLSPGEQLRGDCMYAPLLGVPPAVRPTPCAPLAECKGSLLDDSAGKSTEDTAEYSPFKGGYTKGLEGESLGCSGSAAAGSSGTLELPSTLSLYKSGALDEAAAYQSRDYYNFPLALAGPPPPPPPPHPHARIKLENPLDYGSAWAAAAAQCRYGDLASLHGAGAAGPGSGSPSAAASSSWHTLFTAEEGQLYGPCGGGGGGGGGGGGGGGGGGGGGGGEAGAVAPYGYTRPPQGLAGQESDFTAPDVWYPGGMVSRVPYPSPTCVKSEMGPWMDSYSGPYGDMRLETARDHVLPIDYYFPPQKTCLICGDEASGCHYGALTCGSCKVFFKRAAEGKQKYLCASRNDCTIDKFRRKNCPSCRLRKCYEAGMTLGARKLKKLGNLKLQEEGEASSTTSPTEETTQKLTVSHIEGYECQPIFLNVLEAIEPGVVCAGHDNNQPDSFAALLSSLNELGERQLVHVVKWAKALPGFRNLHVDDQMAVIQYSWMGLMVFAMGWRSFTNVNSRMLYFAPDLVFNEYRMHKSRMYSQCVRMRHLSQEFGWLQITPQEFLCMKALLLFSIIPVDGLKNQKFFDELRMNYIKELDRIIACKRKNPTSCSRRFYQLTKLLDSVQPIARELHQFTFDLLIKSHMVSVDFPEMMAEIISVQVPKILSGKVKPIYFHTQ
Procedure: as §1, §2

SMILES | IC50
O=C(OC1C2COC(O2)C(OC(=O)c2ccccc2)C1OC(=O)c1ccccc1)c1ccccc1 (stereo not drawn) [Compound 1387] | 4.8 µM
CN(C)c1ncnc2c1cnn2-c1ccc(Cl)cc1 [Compound 1445] | 0.7 µM
CC1CCCCN1.CC1CCCCN1.[Cl][Cu][Cl] (stereo not drawn) [Compound 1826] | 8 µM
NNC(=O)OCc1ccccc1 [Compound 2287] | 1.7 µM
CCNc1ccc(-c2ccc(NCC)cc2)cc1 [Compound 2674] | 5.8 µM
CNc1ccccc1O [Compound 3879] | 7.5 µM
Brc1cccs1 [Compound 4456] | > 10 µM
CCCN(C(C)=O)c1ccccc1 [Compound 4700] | 2 µM
O=C(O)/C=C/c1ccccc1Cl [Compound 4792] | 7.5 µM
CCCCCCCCCCCCCCCC[N+](C)(C)CCN(Cc1ccc(OC)cc1)c1ncccn1 [Compound 5648] | 4.5 µM
O=[N+]([O-])/C=C/c1ccco1 [Compound 5650] | 5.5 µM

The next lines start with the values.

IC50 | SMILES
1 µM | CCCCC(C)O (stereo not drawn) [Compound 3706]
4.8 µM | CCOC(=O)C(CC)(C(=O)OCC)C(C)C [Compound 4695]
6.5 µM | CC(C)CCOC(=S)S [Compound 4864]

target: T3, human ERα binding to flcERE (Homo sapiens, UniProt P03372); test: FAMA: inhibition of ERα binding to flcERE; settings: FAMA, binding to HRE, 5 concentrations 0.5-10 μM, sequential method; read-out: IC50 ERα
T3 construct: Full-length FLAG-tagged human ERα was expressed and purified as described previously (27); FLAG; made in house
T3 sequence (P03372 1-595): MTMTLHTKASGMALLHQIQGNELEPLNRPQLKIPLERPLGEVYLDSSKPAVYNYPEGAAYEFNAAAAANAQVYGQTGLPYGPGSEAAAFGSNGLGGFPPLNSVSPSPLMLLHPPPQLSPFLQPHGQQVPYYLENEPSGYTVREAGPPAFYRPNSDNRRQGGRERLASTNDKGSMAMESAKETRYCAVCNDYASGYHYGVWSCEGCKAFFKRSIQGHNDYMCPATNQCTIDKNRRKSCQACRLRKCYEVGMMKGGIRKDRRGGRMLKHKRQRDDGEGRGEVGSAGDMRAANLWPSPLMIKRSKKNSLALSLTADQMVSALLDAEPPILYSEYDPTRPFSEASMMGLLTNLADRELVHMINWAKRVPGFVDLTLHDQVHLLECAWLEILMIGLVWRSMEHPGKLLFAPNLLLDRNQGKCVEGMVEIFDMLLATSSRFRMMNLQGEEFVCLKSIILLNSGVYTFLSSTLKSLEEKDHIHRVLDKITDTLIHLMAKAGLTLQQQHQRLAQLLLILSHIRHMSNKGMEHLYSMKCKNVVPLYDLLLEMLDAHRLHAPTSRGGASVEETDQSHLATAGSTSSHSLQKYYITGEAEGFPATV
Procedure: Prior to screening, the 10 mM library stocks were diluted to produce replica libraries in 384-well plates containing each small molecule at 0.25 mM (in DMSO). In our initial studies we were concerned that forming the flcERE-ERα complex first and then adding the candidate small molecule inhibitors would miss small molecules that bind at the interface. We therefore screened using the “sequential” method in which the candidate small molecules were first incubated with ERα and followed by addition of the flcERE. The assay for binding of ERα to the flcERE is a modification of our earlier assay (27). Assays were carried out at room temperature in black wall 384-well microplates (Greiner/Bio-One) in a total volume of 10 μl in buffer containing 20 mM Tris pH 7.5, 10% glycerol, 0.2 mM EDTA, 2 mM DTT, 100 mM KCl, 0.5 ng/μl poly dl:dC, […] bovine serum albumin and 100 nM 17β-estradiol (E2). For high throughput screening, a master mix without ERα and probe was prepared at 4° C. The master mix was divided into 2 parts. ERα was added to one part to 5 nM in the final assays. 7 μl of the ERα-containing mix was then dispensed into each well of a 384-well plate on ice. 100 nl of the compounds being tested was then added using a pin-transporter (V & P Scientific, Inc, CA) to a final concentration of 2.5 μM. The samples were mixed using the pin-transporter and sedimented by centrifugation for 2 min. at 4° C. and incubated on ice for 10 min. The flcERE probe was added to the other aliquot of the mix to 1 nM. 3 μl of the mix containing the flcERE probe was added to each well containing ERα and the test compound. The samples were mixed using the pin-transporter, the plates were briefly centrifuged and incubated at room temperature for 10 min. and fluorescence anisotropy (FA) was measured using a BMG PheraStar (BMG Labtech) microplate reader (module: 485 520) with excitation at 485λ and emission at 520λ. To identify small molecules that were highly fluorescent, or quench fluorescence, fluorescence intensity was also measured.
as §1

SMILES | IC50
O=C(OC1C2COC(O2)C(OC(=O)c2ccccc2)C1OC(=O)c1ccccc1)c1ccccc1 (stereo not drawn) [Compound 1387] | 4.5 µM
CN(C)c1ncnc2c1cnn2-c1ccc(Cl)cc1 [Compound 1445] | 0.6 µM
CC1CCCCN1.CC1CCCCN1.[Cl][Cu][Cl] (stereo not drawn) [Compound 1826] | 7 µM
NNC(=O)OCc1ccccc1 [Compound 2287] | 2.1 µM
CCNc1ccc(-c2ccc(NCC)cc2)cc1 [Compound 2674] | 5.5 µM
CNc1ccccc1O [Compound 3879] | 3.7 µM
Brc1cccs1 [Compound 4456] | 7.5 µM
CCCN(C(C)=O)c1ccccc1 [Compound 4700] | 2 µM
O=C(O)/C=C/c1ccccc1Cl [Compound 4792] | > 10 µM
CCCCCCCCCCCCCCCC[N+](C)(C)CCN(Cc1ccc(OC)cc1)c1ncccn1 [Compound 5648] | 6.5 µM
O=[N+]([O-])/C=C/c1ccco1 [Compound 5650] | 8 µM

Further lines, results first:

IC50 | SMILES
0.8 µM | CCCCC(C)O (stereo not drawn) [Compound 3706]
2.5 µM | CCCCCCCC(=O)OC [Compound 3710]
2.5 µM | CCOC(=O)C(CC)(C(=O)OCC)C(C)C [Compound 4695]
8 µM | CC(C)CCOC(=S)S [Compound 4864]
